Laboratory results published in patent publication US20220304862A1, “Method And Device For Substance Delivery To The Inner Ear” (UNIVERSITY OF BRIGHTON, priority 2019, published 2022).

System: auditory nerve
Procedure: Pigmented guinea pigs of similar weight (350-360 g) were anaesthetised with the neurolept anaesthetic technique (0.06 mg/kg body weight atropine sulphate s.c., 30 mg/kg pentobarbitone i.p., 500 μl/kg Hypnorm i.m.). Additional injections of Hypnorm were given every 40 minutes. Additional doses of pentobarbitone were administered as needed to maintain a non-reflexive state. The heart rate was monitored with a pair of skin electrodes placed on both sides of the thorax. The animals were tracheotomized and artificially respired, and their core temperature was maintained at 38° C. with a heating blanket and a heated head holder.
The middle ear cavity of the ear used for the measurements was opened to reveal the round window. Compound action potentials of the auditory nerve were measured from the cochlear bony ridge in the proximity of the round window membrane using Teflon-coated silver wire coupled to laboratory designed and built extracellular amplifier (James Hartley). Thresholds of the N1 peak of the compound action potentials were estimated visually using 10 ms tone stimuli at a repetition rate of 10 Hz.
For acoustic stimulation sound was delivered to the tympanic membrane by a closed acoustic system comprising two Bruel and Kjaer 4134½″ microphones for delivering tones and a single Bruel and Kjaer 4133½″ microphone for monitoring sound pressure at the tympanum. The microphones were coupled to the ear canal via 1 cm long, 4 mm diameter tubes to a conical speculum, the 1 mm diameter opening of which was placed about 1 mm from the tympanum. The closed sound system was calibrated in situ for frequencies between 1 and 50 kHz. Known sound pressure levels were expressed in dB SPL re 2×10^−5 Pa. All acoustic stimuli in this work were shaped with raised cosines of 0.5 ms duration at the beginning and at the end of stimulation. White noise for acoustical calibration and tone sequences for auditory stimulation were synthesised by a Data Translation 3010 board at 250 kHz sampling rate and delivered to the microphones through low-pass filters (100 kHz cut-off frequency). Signals from the acoustic measuring amplifier (James Hartley) were digitised at 250 kHz sampling rate using the same board and averaged in the time domain. Experimental control, data acquisition and data analysis were performed using a PC with programmes written in MATLAB.
The solution was removed from the round window using paper wicks to observe the wash out effect. […]
In the second experiments, the placement of the same volume of salicylate solution on the round window was followed by stimulation of the ear with oscillating air pressure in the ear canal during a 5-minute period with a consecutive 5-minute period without oscillating air pressure stimulation when the auditory nerve thresholds were measured. […]

`O=C([O-])c1ccccc1O.[Na+]` [salicylate, sodium salicylate] was tested, and the “time after which the salicylate effect saturated” value (oscillating pressure 4 Hz in ear canal, total pressure stimulation time, excluding the 5-minute no-pressure periods) was 15 to 20 min, the “effect of salicylate on the auditory nerve threshold” value (passive diffusion, 5 μl of 100 mM on round window, tone frequencies lower than 5 kHz (approximately apical 55% of cochlear length), FIG. 2A) was “no effect” and the “increase of threshold response to pure tones with oscillating pressure versus passive diffusion” value (tones 27, 21, 15, 11, 5, 3 and 1 kHz, particularly low frequencies, pooled data of 5 experiments per protocol, FIG. 4) was “to a far greater extent”. For the same compound, the “recovery of compound action potential thresholds after washing out of salicylate from the round window” value (washout after 80 min (passive) or 74 min (oscillating pressure), FIG. 2) was “Partial recovery”.
